Structures can show the parent of a compound that is named as a salt. Where two headings read alike, the source gives them in different places.
Tests used:
HCoV-229E = assay: microbe, parasite or virus in culture; type: cell-based, Homo sapiens sapiens
[1] = Huh-7.5 cells, dose series, maximum tested dose 5 µM
[2] = HCoV 229E infection, dose series, max. dose 5 µM, read-out: IC50

| Compound | IC50 (HCoV-229E; read-out: IC50) [µM] | CC50 (µM) (Huh-7.5/F-Luc cells; [1]) | % cell viability at max. dose [5 µM] (Huh-7.5/F-Luc cells; at max. dose 5 µM) [%] | Anti-SARS-CoV-2 screening on Calu-3 cells: viability [% of control] (SARS-CoV-2; Calu-3 cells) | Anti-SARS-CoV-2 screening on Calu-3 cells: intracellular SARS-CoV-2 infection measured via immunofluorescence imaging [% of control] (SARS-CoV-2; Calu-3 cells) | IC50 (HCoV-229E; [2]) [µM] | IC50 (HCoV-229E; Human coronavirus 229E, Huh7.5) [µM] | IC50 (HCoV-229E; HCoV-229E/R-Luc on Huh-7.5/F-Luc cells, dose series, max. dose 5 µM, read-out: IC50 (µM), HCoV 229E) [µM] | % cell viability at max. dose [5 µM] (Huh-7.5/F-Luc cells; Huh-7.5/F-Luc cells, 5 µM) [%] | CC50 (µM) (Huh-7.5/F-Luc cells; Huh-7.5/F-Luc cells, maximum tested dose 5 µM) | % cell viability at max. dose [5 µM] (Huh-7.5/F-Luc cells) [%] | CC50 (µM) (Huh-7.5/F-Luc cells) | Anti-SARS-CoV-2 screening on Calu-3 cells: viability [% of control] (SARS-CoV-2) |
| --- | --- | --- | --- | --- | --- | --- | --- | --- | --- | --- | --- | --- | --- |
| CN1C2CCC1CC(OC(c1ccccc1)c1ccc(Cl)cc1)C2.Cl (stereo not shown) | 0.69 | greater than maximum tested dose | 144.12 | 110.96 % of control | 110.06 % of control |  |  |  |  |  |  |  |  |
| CCNCc1cncc(-c2ccc3[nH]nc(-c4nc5c(F)cc(F)cc5[nH]4)c3c2)c1C [AG-024322] |  | greater than maximum tested dose | 151.27 | 54.61 % of control | 108.94 % of control | 0.78 |  |  |  |  |  |  |  |
| COc1cc(C(C)=O)ccc1OCCCN1CCC(C(O)(c2ccc(F)cc2)c2ccc(F)cc2)CC1 [AHR-5333] |  | greater than maximum tested dose | 162.61 | 103.33 % of control | 98.57 % of control | 1 |  |  |  |  |  |  |  |
| Nc1ncccc1-c1nc2ccc(-c3ccccc3)nc2n1-c1ccc(C2(N)CCC2)cc1 [ARQ-092 (Miransertib mesylate)] |  | greater than maximum tested dose | 98.72 | 27.64 % of control | 126.86 % of control |  |  |  |  |  |  |  |  |
| COc1ccc2cc1Oc1ccc(cc1)C[C@H]1c3c(cc4c(c3Oc3cc5c(cc3OC)CCN(C)[C@@H]5C2)OCO4)CCN1C [Cepharanthine] |  | greater than maximum tested dose |  |  |  |  | 0.47 |  |  |  |  |  |  |
| CCN(CC)CCCN1c2ccccc2Sc2ccc(Cl)cc21.Cl [Chlorproethazine HCl] |  | greater than maximum tested dose | 142.02 | 91.47 % of control | 133.96 % of control | 0.83 |  |  |  |  |  |  |  |
| CN(C)CCCN1c2ccccc2Sc2ccc(Cl)cc21 [Chlorpromazine69-09-0] |  | greater than maximum tested dose | 144.29 | 118.10 % of control | 120.36 % of control | 0.77 |  |  |  |  |  |  |  |
| Oc1ccc(CCN2CCC(Nc3nc4ccccc4n3Cc3ccc(F)cc3)CC2)cc1 [DESMETHYLASTEMIZOLE] | 1.07 | greater than maximum tested dose | 160.37 | 121.52 % of control | 109.56 % of control |  |  |  |  |  |  |  |  |
| CC/C(=C(\c1ccc(O)cc1)c1ccc(OCCNC)cc1)c1ccccc1.Cl [Endoxifen (hydrochloride)] |  | greater than maximum tested dose | 148.79 | 90.44 % of control | 114.51 % of control | 0.56 |  |  |  |  |  |  |  |
| C=C1C[C@@H]2CC[C@@]34C[C@H]5O[C@H]6[C@@H](O3)[C@H]3O[C@H](CC[C@@H]3O[C@H]6[C@H]5O4)CC(=O)C[C@@H]3[C@@H](OC)[C@@H](C[C@H](O)CN)O[C@H]3C[C@H]3O[C@@H](CC[C@@H]1O2)C[C@@H](C)C3=C [Eribulin (mesylate)] |  | greater than maximum tested dose | 97.37 | 41.43 % of control | 29.49 % of control | 0.05 |  |  |  |  |  |  |  |
| CN1CC[C@H](c2c(O)cc(O)c3c(=O)cc(-c4ccccc4Cl)oc23)[C@H](O)C1 [Flavopiridol (Alvocidib)] |  | greater than maximum tested dose | 115.14 | 90.90 % of control | 15.82 % of control | 0.14 |  |  |  |  |  |  |  |
| CN(C)C(C)(C)CSc1nc2ccccc2cc1-c1ccccc1 [ICI-170809] |  | greater than maximum tested dose | 138.76 | 98.23 % of control | 103.59 % of control | 0.52 |  |  |  |  |  |  |  |
| O=S(=O)(Nc1ccc(CCNC[C@H](O)c2cccnc2)cc1)c1ccc(-c2nc(-c3ccc(C(F)(F)F)cc3)cs2)cc1 [L 796568] |  | greater than maximum tested dose | 149.63 | 84.86 % of control | 111.47 % of control | 0.77 |  |  |  |  |  |  |  |
| Cc1ccc(Sc2ccccc2C2CCNCC2)cc1 [LU-AA24530] |  | greater than maximum tested dose | 150.91 | 106.74 % of control | 100.77 % of control | 0.68 |  |  |  |  |  |  |  |
| Oc1ccc2c(c1)CC[C@H](c1ccccc1)[C@H]2c1ccc(OCCN2CCCC2)cc1 [Lasofoxifene tartrate] |  | greater than maximum tested dose | 142.22 | 103.26 % of control | 99.99 % of control | 0.54 |  |  |  |  |  |  |  |
| c1ccc(CCCC(Oc2ccccc2OCc2ccccc2)C2=NCCN2)cc1 (stereo not shown) [MDL 102588] |  | greater than maximum tested dose | 109.08 | 101.49 % of control | 108.93 % of control | 0.52 |  |  |  |  |  |  |  |
| CC(C)(O)c1ccc2c(c1)/C(=C/CCN1CC[C@](O)(c3ccc(Cl)cc3)C(C)(C)C1)c1cccnc1CO2 [MLN-3897] |  | greater than maximum tested dose | 122.09 | 106.59 % of control | 101.50 % of control | 0.96 |  |  |  |  |  |  |  |
| Cc1c(-c2ccccc2)oc2ccc(OCCCCCCN3CCC(O)CC3)cc2c1=O [NPC 16377] |  | greater than maximum tested dose | 107.69 | 101.43 % of control | 119.40 % of control | 1.07 |  |  |  |  |  |  |  |
| OC(CNCC(O)C1CCc2cc(F)ccc2O1)C1CCc2cc(F)ccc2O1 (stereo not shown) [Nebivolol HCl] |  | greater than maximum tested dose |  |  |  |  | 1 |  |  |  |  |  |  |
| OCCNCCOc1ccc(/C(=C(\c2ccccc2)C(F)(F)F)c2ccccc2)cc1 [PANOMIFENE] | 0.89 | greater than maximum tested dose | 141.70 | 98.59 % of control | 95.32 % of control |  |  |  |  |  |  |  |  |
| Oc1cccc[c]1[Hg][Cl] [RFM-006-841-7] |  |  |  | 123.69 % of control | 99.62 % of control |  |  | 1.35 | 91.70 | greater than maximum tested dose |  |  |  |
| CC1(C)CC[C@]2(NC(=O)C(C)(F)F)CC[C@]3(C)[C@H](C(=O)C=C4[C@@]5(C)C=C(C#N)C(=O)C(C)(C)[C@@H]5CC[C@]43C)[C@@H]2C1 [RTA-63415 / Omaveloxolone] |  |  |  |  | 99.52 % of control | 0.08 |  |  |  |  | 77.27 | greater than maximum tested dose | 122.72 % of control |
| COc1cc2c(cc1N1C[C@@H](C)N[C@@H](C)C1)N(C(=O)c1ccc(-c3ccc(-c4noc(C)n4)cc3C)cc1)CC2 [SB-616234-A] |  | greater than maximum tested dose | 143.19 | 119.80 % of control | 117.99 % of control | 0.57 |  |  |  |  |  |  |  |
| C1=C(c2ccc(CN3CCCCC3)cc2)N2CCN=C2c2ccccc21 [SDZ-62-434] |  | greater than maximum tested dose | 157.85 | 104.96 % of control | 96.11 % of control | 0.76 |  |  |  |  |  |  |  |
| CN(C)CCCOC(CCCCc1ccccc1)c1ccccc1 (stereo not shown) [SM-3163] |  | greater than maximum tested dose | 166.12 | 103.94 % of control | 105.69 % of control | 0.77 |  |  |  |  |  |  |  |
